Results on 1 molecule are retold here after US12491187B2, “Use of MCT1 inhibitors to enhance insulin sensitivity” (H. LEE MOFFIT CANCER CENTER AND RESEARCH INSTITUTE, INC., priority 2022, dated 2025).

The structures appear in SMILES notation.

What all share (type): cell-based, murine
Assay [1] concerns differentiated 3T3-L1 adipocytes. Nature of the assay: Intracellular pyruvate (Amplite fluorimetric assay). The following applies: 1 μM. The method, then:
Intracellular Pyruvate: Intracellular pyruvate was measured using the Amplite™ Fluorimetric Pyruvate Assay Kit (AAT Bioquest) according to the manufacturer's instructions. 3T3-L1 cells were seeded and differentiated in white clear bottom 96-well plates (Corning®). After differentiation, cells were treated with compound or vehicle as indicated. Following 15 min, 30 min, 1 hr, 4 hr, 8 hr or 24 hr incubation with 1 μM AZD6965, media was removed, and cells were lysed with ReadiUse™ mammalian cell lysis buffer (AAT Bioquest). Lysates were then subjected to an enzyme-coupled reaction with the Quest Fluor™ Pyruvate Sensor resulting in an […] detected at 575 nm which is proportional to the quantity of pyruvate within the sample. Absorbance was read on a spectrophotometer (FlexStation 3; Molecular Devices).

The subject of another assay is preadipocytes (3T3-L1). Put plainly: Proliferation (CyQUANT NF) of preadipocytes. The following applies: 72 hr.
The test system of assay [2] is differentiated 3T3-L1 (WT) cells. Nature of the assay: Glucose uptake (Glucose Uptake-Glo) in WT adipocytes. The following applies: for insulin-stimulated glucose uptake: then 175 nM insulin 30 minutes. The protocol: (§1) Glucose Uptake: 3T3-L1 cells were seeded and differentiated in clear bottom 96-well plates (Corning®). After differentiation, cells were treated with or without […] AZD3965 for 24 hr, 48 hr or 72 hr as illustrated in FIG. 7 (schematic outline of experimental procedure). The cells were incubated in serum free media the night before performing the assay. The following day/morning, media was changed to serum and glucose free media for 2 hr prior to the experiment. Cells were then stimulated with 175 nM Insulin or vehicle (PBS) for 30 minutes. Glucose Uptake was measured using the Glucose Uptake-Glo™ Assay (Promega®) according to the manufacturer's protocol. The data generated were normalized by dividing the relative luminescence units (RLU) measured in insulin stimulated wells by vehicle treated controls. The aforementioned experiment was repeated in the presence of the CDK1 inhibitor, RO-3306 (10 μM), where indicated (FIG. 5C).

Assay [3] concerns differentiated 3T3-L1 cells. Put plainly: NADP+ + NADPH bioavailability (NADP+/NADPH-Glo). The following applies: 1 μM. The protocol:
NADP++NADPH Bioavailability: 3T3-L1 cells were seeded, differentiated and treated with or without AZD3965 (1 μM) for up to 72 hr in clear 96 well plates (Corning®). Following treatment, the NADP+/NADPH-Glo™ (Promega®) kit was used to measure the total NADP++NADPH concentration within each sample according to the manufacturer's instructions. In the presence of either NADP+ or NADPH, an enzyme ‘Reductase’ reduces a pro-luciferin reductase substrate to form luciferin which emits a luminescent signal directly proportional to the quantity of NADP+ and NADPH. Luminescence was read on a spectrophotometer (FlexStation 3; Molecular Devices).

Assay [4] relates to differentiated 3T3-L1 adipocytes. Nature of the assay: NAD+/NADH ratio (NAD+/NADH-Glo). Particulars: 1 μM. The method, then:
NAD+/NADH Ratio: 3T3-L1 cells were seeded, differentiated and treated with or without AZD3965 (1 μM) for 15 min, 30 min, 1 hr, 4 hr, 8 hr or 24 hr in clear 96 well plates (Corning®). Following incubation with the compound, the NAD+/NADH-Glo™ (Promega®) kit was used to measure both the NAD+ and NADH concentrations within each sample according to the manufacturer's protocol. Briefly, samples were lysed and split into 2 separate white 96 well plates (Corning®). One plate was treated with a strong acid (0.4N HCl) to eliminate NADH in the sample while the other plate was treated with a strong base (0.2N NaOH) to eliminate NAD+, and both plates were incubated at 60° C. for 15 minutes. Samples were then neutralized and subjected to the NAD+/NADH-Glo™ assay. Within this assay, in the presence of NAD+ or NADH, an enzyme ‘Reductase’ reduces a pro-luciferin reductase substrate to form luciferin which emits a luminescent signal directly proportional to the quantity of NAD+ or NADH within the sample. Luminescence was read on a spectrophotometer (FlexStation 3; Molecular Devices). To calculate the NAD+/NADH ratio for each sample, luminescence from acid-treated samples, (reflecting NAD+level), was divided by the luminescence signal from the corresponding base-treated samples (reflecting NADH levels).

The next assay concerns 3T3-L1-shMCT1 cells. Put plainly: Glucose uptake (Glucose Uptake-Glo) in MCT1 knockdown cells. The method, then: Cell Line Development: Lenti plasmid vectors containing shRNA targeting MCT1 or a shScramble sequence were purchased from Genocopia. Lentiviral particles were produced using HEK293T cells and a third-generation packaging system, MISSION Lentiviral Packaging Mix, as per manufacturer's (Sigma-Aldrich) recommendations. To generate shMCT1 cells, 3T3-L1 cells were seeded and transduced with optimized titers of freshly harvested lentivirus. 12 hr after transduction, medium was changed, and cells were allowed to recover for 24 h before being placed under antibiotic selection (2 μg/mL puromycin [Clontech]) for 3-6 days. Cells surviving antibiotic selection were harvested for both reverse transcription quantitative chain polymerase reaction (RT-qPCR) and immunoblotting analyses.
as §1, with “The following day/morning, media was changed to serum and glucose free media for 2 hr prior to the experiment. Cells were then stimulated with 175 nM Insulin or vehicle (PBS) for 30 minutes.” left out, “The aforementioned experiment was repeated in the presence of the CDK1 inhibitor, RO-3306 (10 μM), where indicated (FIG. 5C).” left out

As to `Cc1[nH]nc(C(F)(F)F)c1Cc1sc2c(c1C(=O)N1C[C@](C)(O)CO1)c(=O)n(C)c(=O)n2C(C)C` [AZD3965, 5-[[(4S)-4-hydroxy-4-methyl-2-isoxazolidinyl]carbonyl]-3-methyl-1-(1-methylethyl)-6-[[5-methyl-3-(trifluoromethyl)-1H-pyrazol-4-yl]methyl]-thieno[2,3-d]pyrimidine-2,4 (1H, 3H)-dione], the intracellular pyruvate levels result in assay [1] (after 24 hr) is given as “not significantly altered”. Besides, in assay [1] (first 8 hr of treatment), the intracellular pyruvate entry is “significant increase”. Besides, the proliferation result in the assay on preadipocytes (3T3-L1) is listed as “no effect on proliferation”. The insulin-stimulated glucose uptake result in assay [2] (1 μM for 24 hr) is on record as “did not reach statistical significance”; in assay [2] (1 μM for 48 hr and 72 hr) it was “significant increase”; in the assay on 3T3-L1-shMCT1 cells (1 μM for 72 hr, 175 nM insulin), “do not respond to insulin as robustly as WT 3T3-L1 cells or show any increase”. Moreover, the “basal, non-insulin stimulated glucose uptake” value was “no impact” in assay [2] (1 μM, 24-72 hr) and “no significant changes” with 3T3-L1-shMCT1 cells (1 μM, up to 72 hr). Besides, the “concentration of NADP+/NADPH cofactor species” value in assay [3] (24 hr, 48 hr and 72 hr) is listed as “subtle, yet significant decrease”. For the same molecule, in assay [3] (up to 72 hr), the “decrease in intracellular concentrations of NADP+ (H)” value is reported as “less than 15%”. The “NAD+/NADH ratio” value in assay [4] (all time points measured (15 min-24 hr)) was “significant change”; in assay [4] (first 8 hr of treatment), “significant decrease”.
